Source: PubChem BioAssay AID449764 (Southern Research Specialized Biocontainment Screening …, 2010)

tested on: Mycobacterium tuberculosis H37Rv growth inhibition, no glycerol; experiment: Mycobacterium tuberculosis H37Rv growth inhibition, no glycerol, confirmatory dose response (AID 449764); conditions: not given;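 note: growth read after 7 days of incubation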

| Structure (SMILES) | IC50 [µM] |
| --- | --- |
| CC(C)CCNC(=O)C(c1ccc(O)cc1)N(C(=O)C1COc2ccccc2O1)c1cccc(O)c1 (centres undefined) | 71.6 |
| C[n+]1c(-c2ccccc2)c2cc(N)ccc2c2ccc(N)cc21 | 16.4 |
| N#Cc1c([N+](=O)[O-])cc([N+](=O)[O-])cc1S(=O)(=O)Cc1ccccc1 | 22.6 |
| O=C(Nc1cccnc1Cl)c1cc(-c2ccco2)on1 | 38.4 |
| COC(=O)c1ccc(/C=C/c2c(-c3ccsc3)oc3ccc(N4CCOCC4)cc23)cc1 | 30.6 |
| CC(=O)c1ccc(Sc2nnnn2-c2ccccc2)c([N+](=O)[O-])c1 | 19.8 |
| Cn1ccc(=Nc2ccc(NC(=O)c3ccc(N=c4ccn(C)c5ccc([N+](=O)[O-])cc45)cc3)cc2)cc1 | < 0.2 |
| Cc1cc(-c2c(C)[nH]n(-c3ccccc3)c2=O)n[nH]1 | 39.4 |
| O=C1CCc2ccc(OCCCCN3CCN(c4cccc(Cl)c4Cl)CC3)cc2N1 | 33.3 |
| O=C(CCS(=O)(=O)c1ccc(F)cc1)Nc1nc(-c2ccccn2)cs1 | 12.8 |
| CC(C)(C)c1ccc(Cn2c(=N)n(CC(O)c3ccco3)c3ccccc32)cc1 (centres undefined) | 23.3 |
| CCc1ccc2oc(-c3cc(N=Cc4cccc(OC)c4O)ccc3O)nc2c1 | 63.8 |
| O=[N+]([O-])c1cn(-c2nc(-c3ccco3)cc(C(F)(F)F)n2)cn1 | 3.79 |
| CN1C(C(=O)NCc2ccc(OC(F)(F)F)cc2)CC2Cn3c(nc4cc(Cl)c(Cl)cc43)C21 (centres undefined) | 44.2 |
| O=C1C(SCCO)=C(SCCO)C(=O)c2ccccc21 | 11.3 |
| Cn1cnnc1SCc1ccc(C(=O)N=Nc2c(O)n(Cc3ccc(Cl)cc3)c3ccccc23)cc1 | 3.04 |
| CCN(CC)CCNC(=O)c1ccc(NC(=O)c2cn(-c3ccccc3)nc2-c2cccs2)cc1 | 24.4 |
| Oc1ccccc1/C=N/Nc1ccnc(SCc2ccccc2)n1 | 2.69 |
| Cc1cc(C)c(C(N)=O)c(SCC(=O)c2ccc(Cl)cc2)n1 | 75.3 |
| COC(=O)[C@H](CCSC)NC(=O)N1CCN(c2cccc(C(F)(F)F)c2)CC1 | 29 |
| Cc1ccc(NC(=O)CCl)cc1S(=O)(=O)N1CCCCCC1 | 10.1 |

| Structure (SMILES) | IC50 [µM] |
| --- | --- |
| Cc1ccc(C)c(NC(CC(=O)c2ccccc2)C(=O)OCC(=O)c2cccs2)c1 (centres undefined) | 11.1 |
| CCOC(=O)c1[nH]c2ccc(F)cc2c1NC(=O)CN1CCN(C/C=C/c2ccccc2)CC1 | 28.4 |
| CCN(CC)c1ccc(/C=C2\SC(=O)N(C(C)C)C2=O)o1 | 2.87 |
| Cc1ccc(C)c(N/C(N)=N/c2nc(C)cc(C)n2)c1 | 7.67 |
| c1ccc(-c2c3ccccc3nc3[nH]c4ccccc4c23)cc1 | 96.3 |
| CCOC(=O)CSc1nnc(SCCN2C(=O)c3ccccc3C2=O)s1 | 8.73 |
| O=C(NCCCN1CCOCC1)c1cc2c([nH]c3ccccc32)c(-c2cccc(Br)c2)n1 | 18.6 |
| O=C(NC1CCCCC1)C(c1cccs1)N(CCCN1CCOCC1)C(=O)c1ccc(-c2ccccc2)[nH]1 (centres undefined) | 51.3 |
| COc1ccc2nc(NC(=O)C3CCCN(S(=O)(=O)c4cccs4)C3)sc2c1 (centres undefined) | 14.9 |
| CCc1nnc(NC(=O)CN2CCN(c3nc(-c4ccccc4)cs3)CC2)s1 | 42.6 |
| CCOC(=O)CSc1nnc(-c2ccc(S(=O)(=O)NCc3cccs3)cc2)o1 | 5.1 |
| CCCC1CC(C)(c2csc(Nc3ccc(OCC)cc3)n2)OC1=O (centres undefined) | 35.3 |
| O=C(Cc1ccccc1)N/N=C/c1ccc2cccc(O)c2n1 | 11.3 |
| CCCC(=O)OCCNc1cc(SCCC(=O)OC)c2nonc2c1[N+](=O)[O-] | 5.85 |
| O=C(C1CCCN(c2ncnc3c2nc2n3CCCCC2)C1)N1CCN(c2ccc(Cl)cc2)CC1 (centres undefined) | 38.1 |
| CCOC(=O)c1cc(C)nc(Sc2ccc(C)cc2)c1C#N | 5.32 |
| CCOC(=O)c1cc(-c2ccccc2)nc2c1c(C)nn2-c1ccccn1 | 19.3 |
| COc1ccc(C(=O)OCCNC(=O)c2c(Cl)nc3ccccn23)cc1 | 4.19 |
| C=CCNCC(=O)N1N=C(c2ccc3ccccc3c2)CC1c1ccc(OC)cc1 (centres undefined) | 18.4 |
| CCCOC(=O)CSc1nc(N2CCOCC2)c2c(c1C#N)CC(C)(C)OC2 | 23.9 |
| CC1CCCC(C)N1C(=O)COC(=O)c1cc(-c2cccs2)nn1-c1ccccc1 (centres undefined) | 62.2 |

| Structure (SMILES) | IC50 [µM] |
| --- | --- |
| CC(C)NC(=O)c1sc(=S)n2c1[nH]c(=O)c1ccc(C(=O)NCCc3ccc(Cl)cc3)cc12 | 0.73 |
| Cc1[nH]c2ccc(OC(F)(F)F)cc2c1CCNCc1ccc(Cl)cc1 | 14.2 |
| Cc1nn(-c2ccccc2)c(N)c1C(c1ccc(C(C)C)cc1)c1c(C)nn(-c2ccccc2)c1N | 22.9 |
| Cc1nn(CCc2nn[nH]n2)c2nc(-c3ccc(Br)cc3)cc(C(F)(F)F)c12 | 8.29 |
| Cc1ccc(Nc2nc(N)nc(CN3CCc4ccccc4C3)n2)cc1 | 5.61 |
| COc1ccc(-c2ccc(OC)c([C@H]3[C@@H]4C=CCC[C@@]4(C)C(=O)N3Cc3ccccc3)c2)cc1OC | 89.5 |
| CCCCCC(O)c1cccc(OCc2ccc3ccccc3n2)c1 (centres undefined) | 35.4 |
| CCN1/C(=C/C=C/c2oc3ccc(-c4ccccc4)cc3[n+]2CC)Oc2ccc(-c3ccccc3)cc21 | 5.81 |
| CC[n+]1c(/C=C/N(C)c2ccccc2)n(-c2ccccc2)c2ccc(-c3nc4ccccc4s3)cc21 | 1.13 |
| COc1ccc(C(C[N+](=O)[O-])c2c(-c3ccccc3)cc3ccccn23)c(OC)c1 (centres undefined) | 45.7 |
| CC1(C)Cc2c(sc(NC(=O)c3ccc(C(=O)c4ccccc4)cc3)c2C(N)=O)C(C)(C)N1 | 22.9 |
| COC(=O)CSc1nnc(-c2sc3cc(OC)ccc3c2Cl)n1C | 35.8 |
| COC(=O)c1c(NC(=O)CCl)sc(C(=O)N2CCOCC2)c1C | 10 |
| Cc1ccc(-n2c(Cl)c(Cl)nc(Cl)c2=O)cc1 | 16.3 |
| Cc1cc(=O)oc2c(C)c(OCC(=O)N3CCN(C(=O)C4COc5ccccc5O4)CC3)ccc12 (centres undefined) | 77.1 |
| CCN1/C(=C/c2ccc3cc(C)ccc3[n+]2CC)Sc2ccccc21 | 2.73 |
| Cn1nc(C(C)(C)C)cc1NC(=O)Nc1cc(Cl)cc(Cl)c1 | 18.2 |
| CCCCOC(=O)NS(=O)(=O)c1sc(CC(C)C)cc1-c1ccc(Cn2c(CC)nc3c(C)cc(C)nc32)cc1 | 30.7 |
| CCOc1ccc(-c2cc(CCCC(=O)NCCC(C)C)no2)cc1 | 22.6 |
| Cc1ccc(NC(=O)COc2ccccc2CNC(C)(C)CC(C)(C)C)cc1 | 24.6 |
| CN(C(=O)COC(=O)c1sc2ccccc2c1Cl)C1CCCCC1 | 9.63 |

| Structure (SMILES) | IC50 [µM] |
| --- | --- |
| Clc1ccc(NNc2ccnc3cc(Cl)ccc23)cc1 | 15.4 |
| COC(=O)CC(=O)N1CCN(c2ccc(Cl)c(Cl)c2)CC1 | 44.4 |
| C=CC[n+]1ccn(-c2nc3ccccc3nc2[N-]S(=O)(=O)c2cccs2)c1 | 42.6 |
| C/C(=N\Nc1nc2c(s1)CCCC2)c1ccccc1 | 30.6 |
| CN1CC=C(/C=C/c2ccc(-c3ccccc3)cc2)CC1 | 24.5 |
| CCN(CC)c1ccc2nc3ccccc3[n+](CC)c2c1 | 3.23 |
| Cc1cc(NC(=O)CCl)no1 | 2.63 |
| NC(=S)N/N=C/c1ccc(-c2ccccc2)o1 | 44 |
| CCOC(=O)C1(CCOc2ccccc2)CCN(Cc2cccc(-n3cccn3)c2)CC1 | 28.1 |
| C/C(CC(=O)Nc1ccc(Cl)cc1C(F)(F)F)=N\NC(N)=S | 15.9 |
| O=C(c1ccccc1)C1CN(Cc2ccccc2)CCC1(O)c1ccccc1 (centres undefined) | 16.3 |
| O=[N+]([O-])c1ccc(O)c(-c2cc(C(F)(F)F)nc(-c3ccccc3)n2)c1 | 20.4 |
| COc1ccc(-c2cn3cc([N+](=O)[O-])ccc3n2)cc1OC | 46.9 |
| CCOC(=O)[C@@H]1[C@H]2COc3cc(OC)ccc3[C@H]2N2C(=O)N(c3ccc(C(F)(F)F)cc3)C(=O)[C@]12C | 5.78 |
| CC1CC(C)CN(C(=O)C2CCC(CNc3c(N4CCCCC4)c(=O)c3=O)CC2)C1 (centres undefined) | 45.8 |
| CN(C)C1(CNC(=O)Nc2ccc(Cl)c(Cl)c2)CCCCC1 | 11.8 |
| Cc1cccc(NS(=O)(=O)c2ccc(C(=O)N3CCN(c4ccccc4O)CC3)cc2)c1C | 85.5 |
| O=C(C=C=Nc1ccccc1)C(=O)N=C=Cc1ccccc1 | 12.4 |
| COc1ccccc1N1CCN(/N=C/C(Cl)=C/c2ccccc2)CC1 | 89.6 |
| O=C(/C=C/c1ccc([N+](=O)[O-])cc1)NC1CC2CCC1C2 (centres undefined) | 68.7 |

same assay, conditions: measured here: IC90 growth inhibition

| Structure (SMILES) | IC90 [µM] |
| --- | --- |
| CC(C)CCNC(=O)C(c1ccc(O)cc1)N(C(=O)C1COc2ccccc2O1)c1cccc(O)c1 (centres undefined) | > 100 |
